This is an account of results in patent publication US20260265334A1, “STAPLED PEPTIDES” (THE FLOREY INSTITUTE OF NEUROSCIENCE AND MENTAL HEALTH, priority 2023, published 2026).

Bridge positions count the residues as written; N and C are the ends. Peptide text beside a SMILES is read from it. I, II: the chains in the order shown.

The subject of one assay is C57B16 mice. The assay can be described thus: Colorectal propulsion (bead expulsion) in loperamide-constipated mice. The settings on record: 20 μg/kg i.p., 10 minutes after loperamide 1 mg/kg s.c. Format: in vivo, mouse. The protocol:
Male C57B16 mice (20-30 g; ARC), between the ages of 3 to 5 months, were used for all studies. All experiments were conducted in accordance with the National Health and Medical Research Council (NHMRC) guidelines for the care and use of animals and with approval from the Florey Institute of Neuroscience and Mental Health Animal Ethics Committee (#18-128 FINMH and #18-081 FINMH). All animals were group housed (2-6 per cage) and maintained in a humidity-controlled room at 22° C. under a 12 hours light/dark cycle with access to food and water ad libitum.
Loperamide (Sigma-Aldrich) was prepared in 1% Tween-80 (SigmaAldrich) in distilled water and was administered subcutaneously (s.c.) at the back of the neck to induce constipation. Mice were injected with either vehicle (1% Tween-80/water) or loperamide (0.3, 1, 3 mg/kg). INSL5-A13 (20 μg/kg) (SEQ ID NOs 9 and 10) and single-chain αF stapled analogue (200 μg/kg) (SEQ ID NO 16) were dissolved in distilled water and injected intraperitoneally (i.p.) 10 minutes after loperamide was administered (1 mg/kg, s.c.). At 20 minutes post peptide injection, mice were lightly anesthetized with 2% (v/v) isoflurane in O2, administered at 1 L/min for a maximum of 15 seconds following induction with 5% isoflurane in O2 at 1 L/min. […] The time taken from bead insertion to bead expulsion was recorded. […] The time was scored as 30 minutes. […]

Assay [1] has as its target T1, RXFP4 (Homo sapiens, UniProt Q8TDU9). The assay can be described thus: Eu-R3/I5 competition binding assay in CHO-K1-RXFP4 cells. The settings on record: RXFP4; Table 5. Also noted: expressed in transfected cells.
The target in assay [2] is T1, RXFP4. The assay can be described thus: Inhibition of forskolin-induced cAMP activity in CHO-K1-RXFP4 cells (pCRE β-galactosidase reporter). Format: cell-based. More on the design: expressed in transfected cells. The settings on record: RXFP4; Table 5.
Assay [3] relates to mouse model of inflammatory persistent pain. The assay can be described thus: CFA model of inflammatory persistent pain. Format: in vivo. The settings on record: co-injection with RXFP3 agonist. How it is done:
Pilot studies were conducted in a mouse model of inflammatory persistent pain obtained by intraplantar injection of Complete Freund's Adjuvant (CFA). […] The effect is maximal at 30 minutes after the injection and vanished after 1 hour. The same result has been obtained in a rat CFA model with a similar time course of the antinociceptive effect.

T1 sequence (Q8TDU9 whole entry): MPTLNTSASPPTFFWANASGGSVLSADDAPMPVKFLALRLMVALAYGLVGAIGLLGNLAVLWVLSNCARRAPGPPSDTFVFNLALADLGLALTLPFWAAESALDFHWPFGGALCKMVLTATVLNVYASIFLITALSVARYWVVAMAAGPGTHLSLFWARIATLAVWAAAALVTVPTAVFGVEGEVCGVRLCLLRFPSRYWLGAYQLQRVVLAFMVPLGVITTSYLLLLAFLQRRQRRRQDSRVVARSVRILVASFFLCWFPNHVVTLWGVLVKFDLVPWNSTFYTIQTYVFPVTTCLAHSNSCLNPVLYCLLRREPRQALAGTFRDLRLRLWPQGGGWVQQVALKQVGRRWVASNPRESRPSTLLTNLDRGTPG

Turning to `CC[C@H](C)[C@@H]1NC(=O)[C@H](Cc2ccc(O)cc2)NC(=O)[C@H]([C@@H](C)CC)NC(=O)[C@H](C(C)C)NC(=O)[C@H]([C@@H](C)O)NC(=O)[C@H](CCCNC(=N)N)NC(=O)[C@H]([C@@H](C)CC)NC(=O)[C@H](Cc2ccc(O)cc2)NC(=O)[C@H](CCC(=O)O)NC(=O)[C@H](CC(C)C)NC(=O)CNC(=O)[C@@H](NC(=O)[C@H](CC(C)C)NC(=O)[C@H](CCCNC(=N)N)NC(=O)[C@@H](NC(=O)[C@H](CO)NC(=O)[C@H](CCC(=O)O)NC(=O)[C@@H](N)CCCCN)C(C)C)CSSC[C@H](N)C(=O)N[C@@H]([C@@H](C)O)C(=O)N[C@@H](CC(=O)O)C(=O)NCC(=O)N[C@@H](C)C(=O)N[C@@H](CO)C(=O)N[C@@H](CCSC)C(=O)N[C@@H](CCCCN)C(=O)N[C@@H](CC(=O)O)C(=O)N[C@@H](CC(C)C)C(=O)N[C@@H](CO)C(=O)N[C@@H](C)C(=O)N[C@@H](CC(C)C)C(=O)N[C@H](C(=O)O)CSSC[C@@H](C(=O)N[C@@H](C)C(=O)N[C@@H](CO)C(=O)N[C@@H](CO)C(=O)N[C@@H](CCCNC(=N)N)C(=O)N[C@@H](Cc2c[nH]c3ccccc23)C(=O)O)NC1=O` [INSL5-A13] (I: H-KESVRLCGLEYIRTVIYICASSRW-OH / II: H-CTDGASMKDLSALC-OH; disulfide I:7-II:1, I:19-II:14; N-terminus and C-terminus assumed), the “colorectal propulsion (bead expulsion)” value with C57B16 mice is “effective in accelerating colorectal propulsion”. Besides, the “Eu-R3/I5 pKi” value on RXFP4 [1] is recorded as 7.46 ± 0.06 (7). Moreover, on RXFP4 [2], the “cAMP pEC50” value is reported as 8.10 ± 0.10 (4).
For “R3(B1-22): R3(B1-22) RXFP3 antagonist, co-injected in pain model; possibly the same as H3B1-22R (RAAPYGVRLSGREFIRAVIFTSR)”, the “effect of co-injection on the antinociceptive effects of the agonists” value in assay [3] is “fully abolished”.
